Measured values as given in US20080020068A1, “Use Of Trisubstituted Benzopyranones” (Dr.Willmar Schwabe GmbH & Co. KG, priority 2004, published 2008).
Marks after values point to notes of the source that are not given here.

How the values were obtained:
lipoxygenase (LO) = molecular target: T1, lipoxygenase (LO) (Homo sapiens, UniProt P09917); assay: Lipoxygenase activity in human whole blood (cystenyl-LT after A23187); type: cell-based; settings: for Cystenyl-LT: A23187 50 μM; for Cystenyl-LT Effect (%): percentage change vs solvent control
T1 construct: endogenous in cells; host or cells: heparinised human whole blood (leukocytes), stimulated with A23187
T1 sequence (P09917 1-674): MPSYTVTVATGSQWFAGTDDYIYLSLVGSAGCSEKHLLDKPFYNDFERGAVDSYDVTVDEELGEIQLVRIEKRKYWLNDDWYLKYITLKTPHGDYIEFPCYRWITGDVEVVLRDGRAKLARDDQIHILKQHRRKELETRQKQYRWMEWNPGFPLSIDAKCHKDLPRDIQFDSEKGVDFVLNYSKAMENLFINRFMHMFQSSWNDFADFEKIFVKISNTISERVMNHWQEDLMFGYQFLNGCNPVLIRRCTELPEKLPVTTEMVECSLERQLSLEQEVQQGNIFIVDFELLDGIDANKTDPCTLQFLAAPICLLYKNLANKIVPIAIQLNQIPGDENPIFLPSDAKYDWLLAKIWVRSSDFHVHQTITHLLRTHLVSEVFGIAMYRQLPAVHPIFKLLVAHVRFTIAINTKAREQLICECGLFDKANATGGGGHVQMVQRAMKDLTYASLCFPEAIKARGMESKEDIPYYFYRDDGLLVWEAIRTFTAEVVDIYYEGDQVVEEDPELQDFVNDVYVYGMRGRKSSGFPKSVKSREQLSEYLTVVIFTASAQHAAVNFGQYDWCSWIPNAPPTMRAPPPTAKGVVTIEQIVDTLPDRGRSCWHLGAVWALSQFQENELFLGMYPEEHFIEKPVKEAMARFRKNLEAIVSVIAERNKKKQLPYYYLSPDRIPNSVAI
Procedure: (§1) Heparinised human whole blood was used for the investigations. 100 μl of whole blood were added into each well of 96-well microtiter plates. Separated plates were used for the determination of the cyclooxygenase-1 (COX1) and lipoxygenase (LO) activiy as well as for the induction of cyclooxygenase-2 (COX2).
(§2) Compound II was diluted in DME medium (DMEM) with 1% of antibiotics/antimycotics solution and 2 mM L-glutamine (Sigma, Deisenhofen) using DMSO (final concentration 0.1%) as solubility promoter. After adding 50 μl of compound II the tests were incubated for 60 min. at 37° C. Subsequently, 50 μl of calciumionophor A23187 (final concentration 50 μM) were added to stimulate the eicosanoid synthesis. After incubating for further 30 min. at 37° C. the microtiter plates were centrifuged for 5 min. at 4° C. with 1500 g. The plasma was pipetted off and frozen at −80° C. until analysed.
(§3) In the plasma samples TXB2, PGE2 and cystenyl leukotrienes (cystenyl-LT) were determined as parameters for the COX1, COX2 and LO activity. For the analysis commercial EIA test kits (TXB2 and PGE2: Caymann/IBL, Hamburg; cystenyl leukotrienes: CAST-2000, Milenia, Bad Nauheim) were used in accordance with the manufacturers' instructions. […] This spectrum of efficacy is to be regarded as extremely advantageous because in the therapeutic use of compound II the side effects typical of COX1 inhibitors, such as gastrointestinal complications (erosions, ulcerations) or hemorrhages due to the inhibition of the thrombocyte aggregation need therefore not to be taken into consideration.

cyclooxygenase-2 (COX2) = molecular target: T2, cyclooxygenase-2 (COX2) (Homo sapiens, UniProt P35354); assay: Cyclooxygenase-2 activity in human whole blood (PGE2 after aspirin pretreatment and LPS); type: cell-based; settings: for PGE2: aspirin pretreated, LPS 10 μg/ml, 18 h; for PGE2 Effect (%): percentage change vs solvent control
T2 construct: to induce the expression of COX2 25 μl of lipopolysaccharide of E. coli; endogenous in cells; host or cells: heparinised human whole blood, aspirin-pretreated, COX2 induced with LPS
T2 sequence (P35354 18-604): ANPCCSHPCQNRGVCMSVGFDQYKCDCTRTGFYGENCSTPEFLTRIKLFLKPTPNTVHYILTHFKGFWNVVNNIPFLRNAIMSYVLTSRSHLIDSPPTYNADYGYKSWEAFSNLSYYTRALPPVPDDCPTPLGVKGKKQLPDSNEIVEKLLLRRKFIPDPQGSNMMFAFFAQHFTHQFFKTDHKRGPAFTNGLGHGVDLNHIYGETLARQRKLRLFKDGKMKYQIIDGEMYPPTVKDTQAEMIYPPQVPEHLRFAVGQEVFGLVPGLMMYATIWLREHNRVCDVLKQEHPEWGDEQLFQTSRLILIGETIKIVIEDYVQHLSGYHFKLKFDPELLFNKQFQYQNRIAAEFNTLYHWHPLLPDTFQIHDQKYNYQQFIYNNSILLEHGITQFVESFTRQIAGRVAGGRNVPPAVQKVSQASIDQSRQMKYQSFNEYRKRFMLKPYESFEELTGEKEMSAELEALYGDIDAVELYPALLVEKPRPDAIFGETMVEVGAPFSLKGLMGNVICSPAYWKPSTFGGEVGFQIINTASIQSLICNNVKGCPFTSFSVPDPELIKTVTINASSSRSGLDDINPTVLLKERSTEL
Procedure: as §1
Then compound II and the solvent (DMEM with 0.1% DMSO), respectively, were added in a volume of 25 μl. Moreover, to induce the expression of COX2 25 μl of lipopolysaccharide of E. coli (serotype 0127:B8, final concentration 10 μg/ml) were added. After incubating for 18 h at 37° C. the plasma was recovered as described above and also stored at −80° C. until analysed.
as §3

[1] = test system: autoxidation of lipids (brain tissue of male mice); assay: Inhibition of autoxidation of lipids in mouse brain homogenate (chemiluminescence); type: biochemical, mice (NMRI); settings: chemiluminescence over 60 minutes, vs solvent control
From the text: The autoxidation of lipids is associated with the emission of light. The determination of this extraordinarily weak chemiluminescence can be used for both quantifying peroxides and evaluating the efficacy of antioxidants. Brain tissue of male mice (NMRI; 20-30 g; Centre d'Elevage Janvier, Le Genest-Saint Isle, France) served as lipid-rich tissue in the present investigations. After its extraction the brain was washed with ice-cold phosphate-buffered physiological saline solution (PBS, pH 7.4) and freed from meninges and residual blood. The tissue samples were homogenised with 4 times their volume (v/w) made up of PBS and centrifugated at 1000×g and 4° C. for 10 minutes. The supernatants were immediately diluted with the same buffer to 3 times their volume and stored on ice. 250 μl of the diluted supernatant was transferred into a test tube and incubated for 10 minutes at 37° C. in a 6-channel luminometer (Multi-Biolumat LB 9505 C, Berthold, Bad Wildbad). After adding 25 μl of compound II in PBS added with 2.5% DMSO the incubation was continued for further 10 minutes. Then the intensity of the chemiluminescence (CL) was determined over a period of 60 minutes. The percentage of the inhibition of the autoxidation was calculated in comparison to the solvent control (PBS added with 2.5% DMSO) measured simultaneously. […]

IL-6 = assay: Synthesis of IL-6 in LPS-stimulated activated murine peritoneal macrophages; type: cell-based, mouse; settings: for IL-6 pg/ml: LPS 1 μg/ml, 24 h, average of three parallel tests; for IL-6 Effect (%): percentage change vs solvent control
Procedure: (§4) The influence of compound II on the synthesis of the proinflammatory cytokines IL-1β, TNF-α and IL-6 was determined by using activated murine peritoneal macrophages. In order to recover the activated macrophages 3×10^9 killed coryn bacterium parvum bacteria (Changzhou Yanshen Co. Ltd., Changzhou, China) in 0.5 ml PBS were injected intraperitoneally into male NMRI mice (Centre d'Elevage Janvier, Le Genest-Saint Isle, France). 6 days later the abdominal cavity was rinsed with 2.5 ml Hanks' balanced saline solution (HBSS) free of calcium and magnesium added with 10 U/ml heparine. The cells were resuspended at a concentration of 2×10^6 cells/ml in complete RPMI medium supplemented with 10% fetal bovine serum. […] cell suspension were filled into the wells of 96-well microtiter plates, respectively. After an incubation period of 2 h non-adherent cells were removed and the remaining cell lawn was washed twice with culture medium (37° C.). The macrophages were preincubated for 30 min. with compound II and then the synthesis of proinflammatory cytokines was induced by adding 1 μg/ml lipopolysaccharide of E. coli (serotype 0127:B8, Sigma, Deisenhofen). After incubating for 24 h (37° C., 5% CO2 in air) the cells were lysed by freezing and thawing for three times, the cell supernatants were recovered and frozen at −80° C. until analysed. The determination of the cytokine concentration in the cell supernatant was effected by means of commercial test kits (Duosets IL-1β, TNF-α and IL-6, R&D, Wiesbaden) in correspondence with the manufacturer's instructions. All investigations were conducted three times. The influence of compound II on the synthesis of the cytokines was evaluated in comparison to solvent controls (0.1% DMSO in complete RPMI medium) that were tested simultaneously.

cyclooxygenase-1 (COX1) = molecular target: T3, cyclooxygenase-1 (COX1) (Homo sapiens, UniProt P23219); assay: Cyclooxygenase-1 activity in human whole blood (TXB2 after A23187); type: cell-based; settings: for TXB2: A23187 50 μM; for TXB2 Effect (%): percentage change vs solvent control
T3 construct: endogenous in cells; host or cells: heparinised human whole blood (platelets), stimulated with A23187
Procedure: as §1, §2, §3

TNF-α = assay: Synthesis of TNF-α in LPS-stimulated activated murine peritoneal macrophages; type: cell-based, mouse; settings: for TNF-α: LPS 1 μg/ml, 24 h, average of three parallel tests; for TNF-α Effect (%): percentage change vs solvent control
Procedure: as §4

IL-1β = assay: Synthesis of IL-1β in LPS-stimulated activated murine peritoneal macrophages; type: cell-based, mouse; settings: for IL-1β: LPS 1 μg/ml, 24 h, average of three parallel tests; for IL-1β Effect (%): percentage change vs solvent control
Procedure: as §4

[2] = 10 μg/ml (first line so printed, r17-18), human whole blood
[3] = 10 μg/ml (first line so printed, r17-18)
[4] = 10 μg/ml (second line so printed, r19-20), human whole blood
[5] = 10 μg/ml (second line so printed, r19-20)
[6] = 30 μg/ml, human whole blood, average of two parallel tests
[7] = 100 μg/ml, human whole blood, average of two parallel tests

T3 sequence (P23219 24-599): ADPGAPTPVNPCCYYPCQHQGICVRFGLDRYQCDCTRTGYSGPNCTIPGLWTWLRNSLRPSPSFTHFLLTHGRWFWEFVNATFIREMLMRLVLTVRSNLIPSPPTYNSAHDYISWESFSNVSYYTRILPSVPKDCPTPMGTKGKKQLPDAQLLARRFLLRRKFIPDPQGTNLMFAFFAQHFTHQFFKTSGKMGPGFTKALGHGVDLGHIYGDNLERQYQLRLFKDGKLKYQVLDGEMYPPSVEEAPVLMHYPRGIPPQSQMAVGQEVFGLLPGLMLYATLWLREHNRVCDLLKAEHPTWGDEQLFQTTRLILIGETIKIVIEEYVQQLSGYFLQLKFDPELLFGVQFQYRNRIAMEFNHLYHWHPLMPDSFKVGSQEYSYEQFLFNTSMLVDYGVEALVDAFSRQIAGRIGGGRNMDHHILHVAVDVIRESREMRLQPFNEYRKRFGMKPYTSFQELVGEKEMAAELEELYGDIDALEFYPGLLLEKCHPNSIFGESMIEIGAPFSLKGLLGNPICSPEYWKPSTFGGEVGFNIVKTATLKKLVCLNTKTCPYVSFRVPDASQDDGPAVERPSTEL

## O=c1ccc2cc(O)c(O)c(O)c2o1 [Compound II, 6,7,8-Trihydroxy-2H-1-benzopyran-2-one]
Lipoxygenase (LO); [2]
  Cystenyl-LT: 3557 pg/mL
Lipoxygenase (LO); [3]
  Cystenyl-LT Effect (%): −51%
Lipoxygenase (LO); [4]
  Cystenyl-LT: 5193 pg/mL
Lipoxygenase (LO); [5]
  Cystenyl-LT Effect (%): −28%
Lipoxygenase (LO); [6]
  Cystenyl-LT: 2089 pg/mL
Lipoxygenase (LO); 30 μg/ml
  Cystenyl-LT Effect (%): −71%
Lipoxygenase (LO); [7]
  Cystenyl-LT: 661 pg/mL
Lipoxygenase (LO); 100 μg/ml
  Cystenyl-LT Effect (%): −91%
Lipoxygenase (LO); human whole blood
  inhibition of the activity of LO (in words): potent inhibition
cyclooxygenase-2 (COX2); [2]
  PGE2: 3679 pg/mL
cyclooxygenase-2 (COX2); [3]
  PGE2 Effect (%): −66%
cyclooxygenase-2 (COX2); [4]
  PGE2: 5499 pg/mL
cyclooxygenase-2 (COX2); [5]
  PGE2 Effect (%): −49%
cyclooxygenase-2 (COX2); [6]
  PGE2: 2626 pg/mL
cyclooxygenase-2 (COX2); 30 μg/ml
  PGE2 Effect (%): −76%
cyclooxygenase-2 (COX2); [7]
  PGE2: 2232 pg/mL
cyclooxygenase-2 (COX2); 100 μg/ml
  PGE2 Effect (%): −79%
cyclooxygenase-2 (COX2); human whole blood
  inhibition of the activity of COX2 (in words): potent inhibition
[1]
  half-maximal inhibitory concentration, autoxidation of lipids: 53 ng/mL
IL-6; 10 μg/ml
  IL-6 pg/ml: 23078 pg/mL
  IL-6 Effect (%): −27* %
IL-6; 30 μg/ml
  IL-6 pg/ml: 22519 pg/mL
  IL-6 Effect (%): −28* %
IL-6; 100 μg/ml
  inhibition of the synthesis of IL-6 (in words): significant inhibition
  IL-6 pg/ml: 976 pg/mL
  IL-6 Effect (%): −97* %
cyclooxygenase-1 (COX1); [2]
  TXB2: 7825 pg/mL
cyclooxygenase-1 (COX1); [3]
  TXB2 Effect (%): −20%
cyclooxygenase-1 (COX1); [4]
  TXB2: 7278 pg/mL
cyclooxygenase-1 (COX1); [5]
  TXB2 Effect (%): −26%
cyclooxygenase-1 (COX1); [6]
  TXB2: 9993 pg/mL
cyclooxygenase-1 (COX1); 30 μg/ml
  TXB2 Effect (%): +2%
cyclooxygenase-1 (COX1); [7]
  TXB2: 9115 pg/mL
cyclooxygenase-1 (COX1); 100 μg/ml
  TXB2 Effect (%): −7%
cyclooxygenase-1 (COX1); human whole blood
  effect on the activity of COX1 (in words): hardly affected
TNF-α; 10 μg/ml
  TNF-α: 10050 pg/mL
  TNF-α Effect (%): +19%
TNF-α; 30 μg/ml
  TNF-α: 10189 pg/mL
  TNF-α Effect (%): +21%
TNF-α; 100 μg/ml
  inhibition of the synthesis of TNF-α (in words): significant inhibition
  TNF-α: 6251 pg/mL
  TNF-α Effect (%): −26* %
IL-1β; 10 μg/ml
  IL-1β: 3789 pg/mL
  IL-1β Effect (%): +7%
IL-1β; 30 μg/ml
  IL-1β: 3356 pg/mL
  IL-1β Effect (%): −6%
IL-1β; 100 μg/ml
  inhibition of the synthesis of IL-1β (in words): significant inhibition
  IL-1β: 430 pg/mL
  IL-1β Effect (%): −88* %

## Cc1c(C)c2c(c(C)c1O)CCC(C)(C(=O)O)O2 (centres unmarked) [Trolox, reference compound]
[1]
  half-maximal inhibitory concentration, autoxidation of lipids: 1665 ng/mL
